From patent US9855270B2, “Methods and compositions for modulating estrogen receptor mutants” (priority 2014, dated 2018)
Like-named read-outs stand apart in the source and are kept apart here.

Experiments:
Assay in all cases: cells
Assay type in all cases: cell-based
[1] = tested on: MCF-7 cells stably expressing EF1 HA-ER-α Y537N; conditions: EF1 HA-ER-α Y537N; for Percent inhibition compared to vehicle: 5-Day Incubation; for Efficacy (Emax): Day 5 relative to Day 0; for EC50: Homo sapiens, MCF7, read-out: Potency (EC50; nM)
Excerpt: (§1) MCF-7 Mutant ER-α Stable Cell Line Generation: MCF-7 cells stably expressing wild-type or ER-α mutants were generated by subcloning ESR1 wild-type and mutant cDNAs containing an amino terminal hemagglutinin tag into pCDH-EF1-MCS-(PGK-Puro) (referred to as EF1 HA-ER-α) and pCDH-UbC-MCS-EF1-Hygro (referred to as UbC HA-ER-α) (System Biosciences). The resulting plasmids, in addition to an empty vector negative control, were subsequently cotransfected into HEK293T cells with the pPACKH1 packaging plasmid mix (System Biosciences) according to the manufacturer's protocol. Four days post transfection lentiviral particles were purified from the cell medium, tiered and stored at −80° C. MCF-7 cells were transduced with the purified viral particles and stable cell lines were selected by growth in RPMI containing 10% FBS plus 1 μG/mL puromycin or 200 μG/mL hygromycin for pCDH-EF1-MCS-(PGK-Puro) and pCDH-UbC-MCS-EF1-Hygro, respectively.
(§2) MCF-7 Stable Cell Line Viability: MCF-7 cells were enumerated with a hemacytometer adjusted to a concentration of 40,000 cells per mL in Phenol Free RPMI containing 10% CSS with NEAA and Sodium Pyruvate. 16 microliters of the cell suspension was added to each well of a 384 well tissue culture treated white clear bottom polystyrene plate (Corning) using a Matrix 16 channel electronic pipette. The cells were incubated overnight to allow the cells to adhere. The following day, 16 microliters of Phenol Free RPMI containing 10% CSS with NEAA and Sodium Pyruvate was added to the wells of one plate, followed by 16 μL of CellTiter-Glo (Promega, Madison Wis.) luminescent cell viability reagent using a Matrix 16 channel electronic pipette. […] The “average” of the relative luminescence units (RLUs) of the wells are considered to be the baseline value at time=zero. In addition, a 10 point, 1:5 serial dilution in DMSO (Sigma-Aldrich) was performed using Matrix 12 channel electronic pipette, including DMSO only as […]. 4 μL of each dilution was then added to 196 μL of RPMI containing 10% CSS with NEAA and Sodium Pyruvate. 16 μL of medium containing compound was added to the cells at a final concentration ranging from 10 μM to 5 pM. Compound dilution in media and subsequent addition to cells were carried out using Matrix 12 channel electronic pipettes. After 5 day compound exposure, 16 μL of CellTiter-Glo (Promega, Madison Wis.) luminescent cell viability reagent was added to the cells using a Matrix 16 channel electronic pipette. CellTiter-Glo added to 32 μL of medium without cells was used to obtain a background value. […] The relative luminescence units (RLUs) of each well were measured, and relative proliferation (fold) of each sample was determined as follows: (RLU sample−RLU background)/(RLU at T=0)=relative proliferation
(§3) The UbC promoter is reported by the manufacturer (System Biosciences) to express low to moderate RNA levels while the EF1 promoter expresses high levels (System Biosciences).

[2] = tested on: MCF-7 cells stably expressing UbC HA-ER-α E380Q; conditions: UbC HA-ER-α E380Q; for EC50: Homo sapiens, MCF7, read-out: Potency (EC50; nM); for Percent inhibition compared to vehicle: 5-Day Incubation; for Efficacy (Emax): Day 5 relative to Day 0
Excerpt: as §1, §2, §3

[3] = tested on: MCF-7 cells stably expressing UbC HA-ER-α Y537N; conditions: UbC HA-ER-α Y537N; for EC50: Homo sapiens, MCF7, read-out: Potency (EC50; nM); for Percent inhibition compared to vehicle: 5-Day Incubation; for Efficacy (Emax): Day 5 relative to Day 0
Excerpt: as §1, §2, §3

[4] = tested on: MCF-7 cells stably expressing EF1 HA-ER-α L536P; conditions: EF1 HA-ER-α L536P; for Percent inhibition compared to vehicle: 5-Day Incubation; for Efficacy (Emax): Day 5 relative to Day 0; for EC50: Homo sapiens, MCF7, read-out: Potency (EC50; nM)
Excerpt: as §1, §2, §3

[5] = tested on: MCF-7 cells stably expressing UbC HA-ER-α L536R; conditions: UbC HA-ER-α L536R; for EC50: Homo sapiens, MCF7, read-out: Potency (EC50; nM); for Percent inhibition compared to vehicle: 5-Day Incubation; for Efficacy (Emax): Day 5 relative to Day 0
Excerpt: as §1, §2, §3

[6] = tested on: MCF-7 cells stably expressing UbC HA-ER-α L536P; conditions: for EC50: Homo sapiens, MCF7, read-out: Potency (EC50; nM)
Excerpt: as §1, §2, §3

[7] = tested on: MCF-7 cells stably expressing EF1 HA-ER-α L536R; conditions: EF1 HA-ER-α L536R; for Percent inhibition compared to vehicle: 5-Day Incubation; for Efficacy (Emax): Day 5 relative to Day 0; for EC50: Homo sapiens, MCF7, read-out: Potency (EC50; nM)
Excerpt: as §1, §2, §3

[8] = tested on: MCF-7 cells stably expressing EF1 HA-ER-α E380Q; conditions: EF1 HA-ER-α E380Q; for Percent inhibition compared to vehicle: 5-Day Incubation; for Efficacy (Emax): Day 5 relative to Day 0; for EC50: Homo sapiens, MCF7, read-out: Potency (EC50; nM)
Excerpt: as §1, §2, §3

[9] = Antagonist Mode, −E2 (Table 27)

SMILES: CC1=C(c2cccc(O)c2)[C@H](c2ccc(OCCN3CC(CF)C3)cc2)Oc2ccc(O)cc21 [Compound 4-23, (S)-2-(4-(2-(3-(fluoromethyl)azetidin-1-yl)ethoxy)phenyl)-3-(3-hydroxyphenyl)-4-methyl-2H-chromen-6-ol]
- Percent inhibition compared to vehicle ([1]; Agonist Mode, −E2): 88%
- Efficacy (Emax) ([1]; Agonist Mode, −E2): 0.74 ± 0.01
- Percent inhibition compared to vehicle ([1]; Antagonist Mode, +E2): 87%
- Efficacy (Emax) ([1]; Antagonist Mode, +E2): 0.70 ± 0.01
- EC50 ([1]; Antagonist Mode, +E2): 45.5 ± 51.7 nM
- EC50 [1, 9]: 16 ± 17.6 nM
- EC50 ([2]; Agonist Mode, −E2): 0.208 ± 0.141 nM
- EC50 ([2]; Antagonist Mode, +E2): 1.02 ± 0.163 nM
- Percent inhibition compared to vehicle ([2]; Agonist Mode, −E2): 58%
- Efficacy (Emax) ([2]; Agonist Mode, −E2): 1.78 ± 0.28
- Percent inhibition compared to vehicle ([2]; Antagonist Mode, +E2): 77%
- Efficacy (Emax) ([2]; Antagonist Mode, +E2): 1.61 ± 0.34
- EC50 ([3]; Agonist Mode, −E2): 0.446 ± 0.219 nM
- EC50 ([3]; Antagonist Mode, +E2): 2.64 ± 1.86 nM
- Percent inhibition compared to vehicle ([3]; Agonist Mode, −E2): 62%
- Efficacy (Emax) ([3]; Agonist Mode, −E2): 1.63 ± 0.17
- Percent inhibition compared to vehicle ([3]; Antagonist Mode, +E2): 74%
- Efficacy (Emax) ([3]; Antagonist Mode, +E2): 1.70 ± 0.03
- Percent inhibition compared to vehicle ([4]; Agonist Mode, −E2): 62%
- Efficacy (Emax) ([4]; Agonist Mode, −E2): 3.11 ± 0.40
- Percent inhibition compared to vehicle ([4]; Antagonist Mode, +E2): 64%
- Efficacy (Emax) ([4]; Antagonist Mode, +E2): 3.25 ± 0.07
- EC50 ([4]; Antagonist Mode, +E2): 15.1 ± 13.6 nM
- EC50 [4, 9]: 4.78 ± 4.67 nM
- EC50 ([5]; Agonist Mode, −E2): 0.334 ± 0.27 nM
- EC50 ([5]; Antagonist Mode, +E2): 2.58 ± 0.181 nM
- Percent inhibition compared to vehicle ([5]; Agonist Mode, −E2): 53%
- Efficacy (Emax) ([5]; Agonist Mode, −E2): 1.80 ± 0.26
- Percent inhibition compared to vehicle ([5]; Antagonist Mode, +E2): 71%
- Efficacy (Emax) ([5]; Antagonist Mode, +E2): 1.73 ± 0.31
- Percent inhibition compared to vehicle ([6]; Agonist Mode, −E2, 5-Day Incubation): 49%
- Efficacy (Emax) ([6]; Agonist Mode, −E2, Day 5 relative to Day 0): 1.62 ± 0.13
- Percent inhibition compared to vehicle ([6]; Antagonist Mode, +E2, 5-Day Incubation): 69%
- Efficacy (Emax) ([6]; Antagonist Mode, +E2, Day 5 relative to Day 0): 1.87 ± 0.27
- EC50 ([6]; Agonist Mode, −E2): 0.231 ± 0.104 nM
- EC50 ([6]; Antagonist Mode, +E2): 2.09 ± 0.425 nM
- Percent inhibition compared to vehicle ([7]; Agonist Mode, −E2): 57%
- Efficacy (Emax) ([7]; Agonist Mode, −E2): 2.94 ± 0.34
- Percent inhibition compared to vehicle ([7]; Antagonist Mode, +E2): 60%
- Efficacy (Emax) ([7]; Antagonist Mode, +E2): 2.76 ± 0.50
- EC50 ([7]; Antagonist Mode, +E2): 53.3 ± 65.8 nM
- EC50 [7, 9]: 11.3 ± 9.22 nM
- Percent inhibition compared to vehicle ([8]; Agonist Mode, −E2): 63%
- Efficacy (Emax) ([8]; Agonist Mode, −E2): 2.43 ± 0.02
- Percent inhibition compared to vehicle ([8]; Antagonist Mode, +E2): 62%
- Efficacy (Emax) ([8]; Antagonist Mode, +E2): 2.39 ± 0.24
- EC50 ([8]; Antagonist Mode, +E2): 14 ± 15.4 nM
- EC50 [8, 9]: 3.76 ± 3.11 nM
